Each structure is given as a SMILES string. Counter-ions that a name gives are not always drawn.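 The compound was tested at five concentrations on cells cultured in 96-well plates, with a 48-hour exposure period. GI50 is the concentration that inhibits growth by half.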 The source made the active and inactive calls. Rule as the data show it: active = GI50 up to about 1.1 µM and inactive = higher.

The results in this text go back to ChEMBL document CHEMBL1201862, “PubChem BioAssay data set” (2004).

Common to all, as to test: NCI-60 cell line screen, 48 h
The subject of experiment [1] is HCC 2998.
Experiment [2] relates to RXF 393.
Experiment [3] deals with COLO 205.
Experiment [4] relates to NCI-H522.
The test system of experiment [5] is M14.
Experiment [6] concerns UO-31.
Experiment [7] relates to U-251.
Experiment [8] concerns SNB-75.
Experiment [9] has as its system SK-MEL-2.
The test system of experiment [10] is MOLT-4.
Experiment [11] relates to T47D.
The test system of experiment [12] is UACC-62.
Experiment [13] deals with K562.
For experiment [14], the system named is NCI-H23.
The test system of experiment [15] is 786-0.
Experiment [16] relates to CAKI-1.
The test system of experiment [17] is SR.
Experiment [18] concerns SW-620.
Experiment [19] has as its system HCT-15.
Experiment [20] has as its system MDA-N.

For `COc1ccc(C(=O)Cn2c(C(C)=O)nc3ccccc32)cc1`, the GI50 in [1] is 29.9 µM (inactive); in experiment [2] it was > 56.4 µM (inactive); in experiment [3] it was 18.3 µM (inactive); in [4], 3.86 µM (inactive); in experiment [5], 17.5 µM (inactive); in experiment [6], 11.8 µM (inactive). Also, the GI50 in experiment [7] was 3.74 µM (inactive); in experiment [8], > 100 µM (inactive); in experiment [9] it was 12.7 µM (inactive); in experiment [10], 4.98 µM (inactive); in experiment [11] it was 5.28 µM (inactive); in [12] it was 6.89 µM (inactive). Besides, the GI50 was 4.4 µM (inactive) in [13]; 13.2 µM (inactive) in experiment [14]; 6.59 µM (inactive) in [15]; 7.21 µM (inactive) in [16]; 4.92 µM (inactive) in [17]; 5.56 µM (inactive) in experiment [18]. The GI50 in [19] is 6.35 µM; in [20] it was 10.7 µM (inactive).

As to `C[C@H](CCC(=O)O[C@@H]1CC[C@@]2(C)C(CC[C@H]3[C@@H]4CC[C@H]([C@H](C)CCc5nc6ccccc6[nH]5)[C@@]4(C)CC[C@@H]32)C1)[C@H]1CC[C@H]2[C@@H]3CCC4C[C@H](O)CC[C@]4(C)[C@H]3CC[C@]12C` (stereo not given in full), the GI50 in experiment [1] is 2.54 µM (inactive); in [2] it was > 100 µM (inactive); in experiment [3], > 100 µM (inactive); in [4], 3.16 µM (inactive); in [5], > 100 µM (inactive); in experiment [6], 2.43 µM (inactive). Moreover, the GI50 in [7] is 36.7 µM (inactive); in experiment [8], 3.97 µM (inactive); in experiment [9], > 100 µM (inactive); in experiment [10], > 100 µM (inactive); in experiment [11] it was 5.04 µM (inactive); in [12] it was > 100 µM (inactive). Also, the GI50 in experiment [13] was > 100 µM (inactive); in experiment [14], 4.53 µM (inactive); in experiment [15], 11.5 µM (inactive); in experiment [16], > 31.3 µM (inactive); in experiment [17] it was > 100 µM (inactive); in experiment [18] it was > 100 µM (inactive). Moreover, the figures for the GI50 in [19] and in experiment [20] were above 80.2 µM and > 100 µM (inactive), respectively.

On to `C[n+]1c(Cl)cn2c3nc4ccccc4nc3c([O-])c(C#N)c21`, for which the GI50 was > 10 µM (inactive) in experiment [1]; > 100 µM (inactive) in experiment [2]; > 100 µM (inactive) in experiment [3]; > 10 µM (inactive) in experiment [4]; > 100 µM (inactive) in experiment [5]; > 100 µM (inactive) in experiment [6]. Further, the GI50 was > 100 µM (inactive) in experiment [7]; > 54.6 µM (inactive) in experiment [8]; > 4.65 µM (inactive) in experiment [9]; > 100 µM (inactive) in [10]; 41.7 µM (inactive) in experiment [11]; > 92.7 µM (inactive) in experiment [12]. Besides, the GI50 in [13] was > 100 µM (inactive); in experiment [14] it was > 100 µM (inactive); in [15] it was > 100 µM (inactive); in [16], > 100 µM (inactive); in experiment [17], > 74.8 µM (inactive); in experiment [18] it was > 100 µM (inactive). For the same compound, the results for the GI50 in experiment [19] and in experiment [20] were above 10 µM and > 100 µM (inactive), respectively.

As for `CC(C)=CCCC(C)C1=C(O)C(=O)C(C)=CC1=O` (stereo not given), the GI50 was 12.8 µM (inactive) in [1]; 4.74 µM (inactive) in experiment [2]; 5.75 µM (inactive) in experiment [3]; 2.1 µM (inactive) in experiment [4]; 17.2 µM (inactive) in [5]; 7.82 µM (inactive) in experiment [6]. For the same compound, the GI50 in experiment [7] was 22.9 µM (inactive); in experiment [8], 18.4 µM (inactive); in [9], 17.7 µM (inactive); in experiment [10], 1.8 µM (inactive); in experiment [11], 2.07 µM (inactive); in [12], 13.4 µM (inactive). In addition, the GI50 in experiment [13] was 0.336 µM (active); in [14], 16.7 µM (inactive); in [15], 5.86 µM (inactive); in experiment [16] it was 5.89 µM (inactive); in [17], 1.29 µM (inactive); in experiment [18], 5.94 µM (inactive). Besides, the GI50 in experiment [19] was 2.23 µM; in experiment [20], 5.78 µM (inactive).

As for `CC(=O)Nc1cc2nc3n(c2cc1C)CCC3OC(C)=O` (stereo not given), the GI50 in experiment [1], in [2], in [3], in experiment [4], in [5] and in experiment [6] was > 100 µM (inactive) each time. Further, the GI50 in experiment [7], in experiment [8], in experiment [9], in experiment [10], in [11] and in [12] was > 100 µM (inactive) each time. Further, the GI50 in experiment [13], in experiment [14], in experiment [15], in experiment [16], in experiment [17] and in experiment [18] was > 100 µM (inactive) each time. Besides, the GI50 in experiment [19] was above 100 µM; in experiment [20], > 100 µM (inactive).

Regarding `Cc1cc(C)nc(NS(=O)(=O)c2ccc(NNc3c4ccccc4nc4c(C(=O)Nc5ccc(S(=O)(=O)Nc6ncccn6)cc5)cccc34)cc2)n1`, the GI50 is 26.7 µM (inactive) in experiment [1]; 35.3 µM (inactive) in experiment [2]; 27.1 µM (inactive) in experiment [3]; 18.7 µM (inactive) in experiment [4]; 33.7 µM (inactive) in experiment [5]; 30.2 µM (inactive) in experiment [6]. For the same compound, the GI50 in [7] is 21.8 µM (inactive); in experiment [8], 37.5 µM (inactive); in experiment [9], 16.2 µM (inactive); in [10], 32.5 µM (inactive); in experiment [11], 26.1 µM (inactive); in [12], 25.2 µM (inactive). Besides, the GI50 was 28.6 µM (inactive) in experiment [13]; 23 µM (inactive) in experiment [14]; 39.3 µM (inactive) in [15]; 36.3 µM (inactive) in experiment [16]; 8.41 µM (inactive) in [17]; 21.6 µM (inactive) in [18]. In addition, the GI50 in [19] is 32.7 µM; in [20], 31.1 µM (inactive).

As to `CC(C)C(NCc1c(O)ccc2c(-c3ccccc3)cc(=O)oc12)C(=O)O` (stereo not given), the GI50 in experiment [1], in experiment [2], in experiment [3], in [4], in experiment [5] and in experiment [6] was > 100 µM (inactive) each time. For the same compound, the GI50 was > 100 µM (inactive) in experiment [7]; 83.9 µM (inactive) in experiment [8]; > 100 µM (inactive) in experiment [9]; > 100 µM (inactive) in [10]; > 100 µM (inactive) in experiment [11]; > 100 µM (inactive) in experiment [12]. Besides, the GI50 in experiment [13], in experiment [14], in experiment [15], in experiment [16], in [17] and in experiment [18] was > 100 µM (inactive) in each case. In addition, the results for the GI50 in experiment [19] and in experiment [20] were above 100 µM and > 100 µM (inactive), respectively.

With `O=C1c2cccc3cccc(c23)C(=O)N1CCCNCCCCNCCCNCCCN1C(=O)c2cccc3cccc(c23)C1=O` [BISNAPHTHALIMIDOPROPYL SPERMIDINE TRIHYDROBROMIDE], the GI50 in experiment [1] was 0.586 µM (active); in experiment [2], 0.473 µM (active); in experiment [3], 0.348 µM (active); in experiment [4], 0.0859 µM (active); in experiment [5], 1.52 µM (inactive); in experiment [6], 6.5 µM (inactive). Also, the GI50 in [7] is 0.338 µM (active); in experiment [8] it was 0.319 µM (active); in experiment [9] it was 1.22 µM (inactive); in experiment [10], 0.0333 µM (active); in experiment [11], 1.12 µM (inactive); in experiment [12], 0.458 µM (active). Besides, the GI50 was 0.557 µM (active) in [13]; 0.35 µM (active) in experiment [14]; 0.175 µM (active) in experiment [15]; 4.01 µM (inactive) in experiment [16]; 0.0787 µM (active) in [17]; 0.555 µM (active) in experiment [18]. Moreover, the GI50 is 11.7 µM in experiment [19] and 0.792 µM (active) in experiment [20].

In the case of `Cc1cc(N)c2ccccc2[n+]1CCCCCCCCCC[n+]1c(C)cc(N)c2ccccc21` [DEQUALINIUM CHLORIDE], the GI50 was 0.904 µM (active) in experiment [1]; 10.4 µM (inactive) in [2]; 1.33 µM (inactive) in experiment [3]; 0.752 µM (active) in experiment [4]; 2.59 µM (inactive) in experiment [5]; 4.43 µM (inactive) in [6]. Also, the GI50 in [7] was 0.258 µM (active); in experiment [8], 0.986 µM (active); in [9] it was 1.89 µM (inactive); in experiment [10], 0.964 µM (active); in [11], 0.948 µM (active); in experiment [12], 1.82 µM (inactive). The GI50 in experiment [13] was 0.379 µM (active); in experiment [14], 0.41 µM (active); in experiment [15], 2.69 µM (inactive); in experiment [16] it was 7.06 µM (inactive); in [17], 0.472 µM (active); in experiment [18], 2.22 µM (inactive). Moreover, the GI50 was 4.31 µM in experiment [19] and 1.33 µM (inactive) in experiment [20].
